Data published in PubChem BioAssay (NCI).
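Interpolation was linear, between the two tested concentrations surrounding the appropriate level; five concentrations were tested over 48 hours in 96-well plates. At the GI50, growth is halved. At the TGI there is no net growth.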

Experiments:
Experiment in all cases: NCI-60 cell line screen, 48 h
[1] = system: SK-MEL-28 melanoma
[2] = system: UO-31 renal
[3] = system: A549 NSCLC
[4] = system: HOP-62 NSCLC
[5] = system: UACC-62 melanoma
[6] = system: EKVX NSCLC
[7] = system: TK-10 renal
[8] = system: NCI-H522 lung
[9] = system: RPMI-8226 leukemia
[10] = system: BT-549 breast

| Compound | TGI [1] [µM] | TGI [2] [µM] | TGI [3] [µM] | TGI [4] [µM] | TGI [5] [µM] | TGI [6] [µM] | TGI [7] [µM] | TGI [8] [µM] | TGI [9] [µM] | GI50 [1] [µM] | GI50 [2] [µM] | GI50 [3] [µM] | GI50 [4] [µM] | GI50 [5] [µM] | GI50 [6] [µM] | GI50 [7] [µM] | GI50 [8] [µM] | GI50 [9] [µM] | GI50 [10] [µM] | TGI [10] [µM] |
| --- | --- | --- | --- | --- | --- | --- | --- | --- | --- | --- | --- | --- | --- | --- | --- | --- | --- | --- | --- | --- |
| O=C(C=C1SCCS1)/C=C\c1ccc(Cl)cc1 | > 100 | > 100 | > 100 | > 100 | > 100 | > 100 | > 100 | > 100 | > 100 |  |  |  |  |  |  |  |  |  |  |  |
| COc1c(C)cc(O)cc1C=O | > 100 | > 100 | > 100 | > 100 | > 100 | > 100 | > 100 | > 100 | > 100 |  |  |  |  |  |  |  |  |  |  |  |
| COC(=O)C(=O)C(C(=O)C(=O)Nc1cccc(C(C)=O)c1)c1nc2ccc([N+](=O)[O-])cc2[nH]c1=O (stereo unspecified) | > 100 | > 100 | > 100 | > 100 | > 100 | > 100 | > 100 | > 100 | > 100 |  |  |  |  |  |  |  |  |  |  |  |
| COc1cccc2ccc(C(=O)c3ccccc3)nc12 | > 100 |  | > 100 | > 100 | > 100 | > 100 | > 100 | > 100 | > 100 |  |  |  |  |  |  |  |  |  |  |  |
| O=C(/C=C/c1ccco1)c1cc(F)c(Cl)cc1Cl | 50.2 | 34 | 70.7 | 39.1 | 34.6 | 37.3 | 90.1 | 39.5 | 39.9 | 22.7 | 17.1 | 22 | 19.2 | 16.5 | 17.1 | 28.4 | 18.4 | 13.8 |  |  |
| Cc1ccc(S(=O)(=O)c2ccc(NC(=O)SCCC(=O)O)cc2)cc1 | > 100 | > 100 | > 100 | > 100 | > 100 | > 100 | > 100 | > 100 | > 100 |  |  |  |  |  |  |  |  |  |  |  |
| C#CCNC(=O)N(CC#C)N=O | > 100 | > 100 |  | > 100 | > 100 | > 100 | > 100 | 41.6 |  |  |  |  |  |  |  |  |  |  |  |  |
| O=C(COc1ccc(/C=C2\COc3ccccc3C2=O)cc1)Nc1nccs1 | 26.1 | 25.5 | 47.4 | 33.1 | 21.1 | 76.3 | 58.5 | 4.39 | 6.28 | 13.2 | 11.9 | 14.3 | 16.8 | 7.69 | 22.4 | 28.7 | 1.91 | 2.25 |  |  |
| CC(C)(C)OC(=O)N[C@H]1CC(O)c2ccccc2N(CC(=O)O)C1=O (stereo partly specified) | > 100 | > 100 | > 100 | > 100 | > 100 | > 100 | > 100 | > 100 |  |  |  |  |  |  |  |  |  |  |  |  |
| N.N.NCCCCCN.O=C([O-])CCl.O=C([O-])CCl.O=C([O-])CCl.O=C([O-])CCl.[Pt+4].[Pt+4] | 73.8 | 17.9 | 30 | 12.5 | 53.9 | 58.2 | > 100 | 73.8 | > 100 | 23.2 | 4.23 | 3.03 | 1.36 | 0.406 | 17 | 26.4 | 3.3 | 44.9 |  |  |
| C[n+]1c(/C=C/c2c[nH]c3ccccc23)ccc2ccccc21 | 27.3 | 30.4 | 26 | 31.8 | 21.1 |  |  | 25.9 | 28.2 | 13.8 | 11.3 | 5.38 | 12.8 | 7.31 |  |  | 11.8 | 5.63 | 18.6 | 34.2 |
| CCCCCCCCOCC(O)COC(C)C (stereo unspecified) | > 100 | > 100 | > 100 | > 100 | > 100 |  | > 100 |  | 51.9 |  |  |  |  |  |  |  |  |  |  |  |
| O=S(=O)([O-])c1ccc(N=Cc2ccccc2[O-])cc1.O=S(=O)([O-])c1ccc(N=Cc2ccccc2[O-])cc1.[O]=[U+2]=[O] | > 100 | > 100 | > 100 | > 100 | > 100 | > 100 | 71.7 | > 100 | > 100 | > 100 | > 100 | > 100 | 81.7 | > 100 | > 100 | 30.7 | > 100 | > 100 |  |  |
| CC(=O)Nc1ccc(/C=c2\sc3nnc(CCC(=O)Nc4ccccc4Cl)n3c2=O)cc1 | 56.5 | > 100 | > 100 | > 100 | 56.2 | > 100 | > 100 | 36.2 | 45.2 |  |  |  |  |  |  |  |  |  |  |  |
| Cc1ccc(Cl)cc1Nc1nc(C(F)(F)F)ccc1C(=O)N/N=C/c1cccnc1 | 15.8 | 16.2 | 12.4 | 18.5 | 13.7 | 9.01 | 8.89 | 22.5 | > 32.5 | 4.24 | 3.51 | 3.32 | 4.28 | 3.25 | 1.32 | 1.32 | 6.64 | 2.94 |  |  |
| C=C1CC2CCCC12C=O (stereo unspecified) | > 10 |  | > 10 | > 10 | > 10 |  | > 10 | > 10 | > 10 |  |  |  |  |  |  |  |  |  |  | > 10 |
| COc1ccccc1NC(=O)C1=C(C)NC(C)=C(C(=O)Nc2ccccc2OC)C1C1=CC=COC1 | 74 | > 100 | > 100 | > 100 | 15.5 | > 100 | 61.6 |  | 50.1 |  |  |  |  |  |  |  |  |  |  |  |
| COc1ccc2c(c1)[n+]([O-])c(-c1ccc([N+](=O)[O-])cc1)c(N)[n+]2[O-] | > 100 | > 100 | > 100 | > 100 |  | > 100 |  | 32.9 |  |  |  |  |  |  |  |  |  |  |  |  |
| COc1ccc(OC(C)=O)c2c1CCC=CC2=O | 28.6 | 30.9 | 35.4 | 28 | 26.2 |  | 32.2 | 3.8 | 3.96 |  |  |  |  |  |  |  |  |  |  |  |
